Data taken from BindingDB's records for doi:10.1016/j.bmc.2008.06.036 (University of Texas Medical Branch, 2008).

Experiment: Inhibition of Bacillus anthracis edema factor-induced cytotoxicity in mouse RAW264.7 cells assessed as LDH release after 4 hrs

Compound	IC50 [µM]
O=C(O)c1cccc(NC(=O)c2cccc3c2C(=O)c2ccccc2-3)c1 [3-[(9-oxo-9Hfluorene-1-carbonyl)-amino]-benzoic acid]	1.7
COC(=O)c1ccc([C@H]2Nc3ccc(C(=O)O)cc3[C@@H]3C=CC[C@H]23)cc1 [(3aS,4S,9bR)-4-(4-(methoxycarbonyl)phenyl)-3a,4,5,9b-tetrahydro-3H-cyclopenta[c]quinoline-8-carboxylic acid]	100
